Measurements as given in ChEMBL document CHEMBL1150249, “Antiglioma action of xanthones from Gentiana kochiana: Mechanistic and structure-activity requirements” (Bioorg Med Chem, 2008).
Active and inactive are the calls of the source. No cut-off for these calls is given here.

What was measured:
[1] = Inhibition of bovine brain tubulin by microtubule depolymerization assay; design: species or system Bos taurus
C6 [2] = assay: Antiproliferative activity against rat C6 cells assessed as cell number after 48 hrs by crystal violet assay; type: functional, cell-based; conditions: C6, 48 h
U-251 [3] = assay: Antiproliferative activity against human U251 cells assessed as cell number after 48 hrs by crystal violet assay; type: functional, cell-based; conditions: U-251, 48 h
U-251 [4] = assay: Antiproliferative activity against human U251 cells assessed as cell number after 24 hrs by crystal violet assay; type: functional, cell-based
C6 [5] = assay: Antiproliferative activity against rat C6 cells assessed as cell number after 24 hrs by crystal violet assay; type: functional, cell-based
C6 [6] = assay: Antiproliferative activity against rat C6 cells assessed as mitochondrial dehydrogenase activity after 24 hrs by MTT assay; type: functional, cell-based
U-251 [7] = assay: Antiproliferative activity against human U251 cells assessed as mitochondrial dehydrogenase activity after 24 hrs by MTT assay; type: functional, cell-based
C6 [8] = assay: Antiproliferative activity against rat C6 cells assessed as cell number after 72 hrs by crystal violet assay; type: functional, cell-based
U-251 [9] = assay: Antiproliferative activity against human U251 cells assessed as cell number after 72 hrs by crystal violet assay; type: functional, cell-based
C6 [10] = assay: Antiproliferative activity against rat C6 cells assessed as mitochondrial dehydrogenase activity after 72 hrs by MTT assay; type: functional, cell-based
U-251 [11] = assay: Antiproliferative activity against human U251 cells assessed as mitochondrial dehydrogenase activity after 72 hrs by MTT assay; type: functional, cell-based
C6 [12] = assay: Cell cycle arrest in rat C6 cells assessed as accumulation at G0/G1 phase at 50 uM after 24 hrs by flow cytometry relative to control; type: functional
C6 [13] = assay: Cell cycle arrest in rat C6 cells assessed as accumulation at S phase at 50 uM after 24 hrs by flow cytometry relative to control; type: functional
C6 [14] = assay: Cell cycle arrest in rat C6 cells assessed as accumulation at G2/M phase at 50 uM after 24 hrs by flow cytometry relative to control; type: functional
C6 [15] = assay: Induction necrosis in rat C6 cells at 50 uM after 36 hrs by flow cytometry relative to control; type: functional
C6 [16] = assay: Induction apoptosis in rat C6 cells at 50 uM after 36 hrs by flow cytometry relative to control; type: functional
C6 [17] = assay: Induction apoptosis in rat C6 cells assessed as caspase activation at 50 uM after 36 hrs by flow cytometry relative to control; type: functional
C6 [18] = assay: Induction of mitochondrial membrane potential depolarization in rat C6 cells assessed as increase in green to red fluorescence ratio at 50 uM after 24 hrs by flow cytometry; type: functional, cell-based
C6 [19] = assay: Induction of reactive oxygen species production in rat C6 cells at 50 uM after 36 hrs by flow cytometry; type: functional, cell-based
C6 [20] = assay: Antiproliferative activity against rat C6 cells assessed as caspase activation at 50 uM after 36 hrs by flow cytometry in presence of N-acetyl-cysteine; type: functional, cell-based
C6 [21] = assay: Antiproliferative activity against rat C6 cells assessed as cell number after 48 hrs by crystal violet assay in presence of N-acetyl-cysteine; type: functional, cell-based
[22] = Antiproliferative activity against Albino Oxford rat primary astrocytes assessed as cell number after 48 hrs by crystal violet assay; type: cell-based; conditions: astrocyte
[23] = Antiproliferative activity against Albino Oxford rat primary astrocytes assessed as mitochondrial respiration after 48 hrs by MTT assay; type: cell-based; conditions: astrocyte
[24] = Antiproliferative activity against Albino Oxford rat primary astrocytes assessed as change in morphology by bright field microscopy; type: cell-based; conditions: astrocyte
[25] = Antiproliferative activity against Albino Oxford rat peritoneal macrophages assessed as cell number after 48 hrs by crystal violet assay; type: cell-based; conditions: macrophage
[26] = Antiproliferative activity against Albino Oxford rat peritoneal macrophages assessed as mitochondrial respiration after 48 hrs by MTT assay; type: cell-based; conditions: macrophage
C6 [27] = assay: Induction of apoptosis in rat C6 cells assessed as change in morphology at 50 uM after 48 hrs by bright field microscopy; type: functional, cell-based

With CC(=O)O[C@H]1C(=O)[C@@]2(C)[C@H]([C@H](OC(=O)c3ccccc3)[C@]3(O)C[C@H](OC(=O)[C@H](O)[C@@H](NC(=O)c4ccccc4)c4ccccc4)C(C)=C1C3(C)C)[C@]1(OC(C)=O)CO[C@@H]1C[C@@H]2O [PACLITAXEL] the IC50 [1] was 2.4 µM.

For COc1cc(O[C@@H]2O[C@H](CO)[C@@H](O)[C@H](O)[C@H]2O)c2c(=O)c3c(OC)c(O)ccc3oc2c1, the IC50 (C6 [2]) was greater than 100 µM and the IC50 (U-251 [3]) was greater than 100 µM.

With O=c1c2c(O)cc(O)cc2oc2c(O)ccc(O)c12 [DEMETHYLBELLIDIFOLIN] the IC50 (C6 [2]) was greater than 100 µM, the IC50 (U-251 [3]) was greater than 100 µM and the IC50 [1] was greater than 50 µM.

Molecule COc1cc(O[C@@H]2O[C@H](CO[C@@H]3OC[C@@H](O)[C@H](O)[C@H]3O)[C@@H](O)[C@H](O)[C@H]2O)c2c(=O)c3c(OC)c(O)ccc3oc2c1 [GENTIABAVAROSIDE] has an IC50 (C6 [2]) greater than 100 µM and an IC50 (U-251 [3]) greater than 100 µM.

COc1cc(O)c2c(=O)c3c(OC)c(OC)ccc3oc2c1 [DECUSSATIN] showed an IC50 (C6 [2]) greater than 100 µM and an IC50 (U-251 [3]) greater than 100 µM.

Work on COc1cc(O[C@@H]2O[C@H](CO[C@@H]3OC[C@@H](O)[C@H](O)[C@H]3O)[C@@H](O)[C@H](O)[C@H]2O)c2c(=O)c3c(O)c(O)ccc3oc2c1 [ISOGENTIAKOCHIANOSIDE] yielded an IC50 (C6 [2]) greater than 100 µM and an IC50 (U-251 [3]) greater than 100 µM.

COc1cc(O)c2c(=O)c3c(O)ccc(O)c3oc2c1 [BELLIDIFOLIN] gave an IC50 (C6 [2]) greater than 100 µM, an IC50 (U-251 [3]) greater than 100 µM and an IC50 [1] greater than 50 µM.

In the case of COc1cc(O)c2c(=O)c3c(OC)c(O)ccc3oc2c1 [GETIACAULEIN], the Activity (U-251 [4]) is reported as “Active”, the IC50 (C6 [2]) is reported as 56.6 µM and the IC50 (U-251 [3]) is reported as 53.2 µM. For the same molecule, the Activity (C6 [5]) was “Active”, the Activity (C6 [6]) was “Active” and the Activity (U-251 [7]) was “Active”. The Activity (C6 [8]) was “Active”, the Activity (U-251 [9]) was “Active” and the Activity (C6 [10]) was “Active”. The Activity (U-251 [11]) was “Active”, the Activity (C6 [12]) was 73.2% and the Activity (C6 [13]) was 5.8%. It also gave an Activity (C6 [14]) of 18.8%, an IC50 [1] greater than 50 µM and an Activity (C6 [15]) of 5.5%. For the same molecule, the Activity (C6 [16]) was 4.5%, the Activity (C6 [17]) was 6% and the Activity (C6 [18]) was “Active”. The Activity (C6 [19]) was “Active”, the Activity (C6 [20]) was “Active” and the Activity (C6 [21]) was “Active”. The Activity [22] was “Non-toxic”, the Activity [23] was “Non-toxic” and the Activity [24] was “Non-toxic”. The Activity [25] was “Non-toxic” and the Activity [26] was “Non-toxic”.

With COc1cc(O)c2c(=O)c3c(O)c(O)ccc3oc2c1 [GENTIAKOCHIANIN] the Activity (U-251 [4]) was “Active”, the IC50 (C6 [2]) was 31.4 µM and the IC50 (U-251 [3]) was 27.3 µM. For the same molecule, the Activity (C6 [5]) was “Active”, the Activity (C6 [6]) was “Active” and the Activity (U-251 [7]) was “Active”. The Activity (C6 [8]) was “Active”, the Activity (U-251 [9]) was “Active” and the Activity (C6 [10]) was “Active”. For the same molecule, the Activity (U-251 [11]) was “Active”, the Activity (C6 [12]) was 33.7% and the Activity (C6 [13]) was 10.6%. The Activity (C6 [14]) was 52.5%, the IC50 [1] was 18 µM and the Activity (C6 [27]) was “Active”. The Activity (C6 [15]) was 5.9%, the Activity (C6 [16]) was 24.2% and the Activity (C6 [17]) was 19.7%. The Activity (C6 [18]) was “Active”, the Activity (C6 [19]) was “Active” and the Activity [22] was “Non-toxic”. The Activity [23] was “Non-toxic”, the Activity [24] was “Non-toxic” and the Activity [25] was “Non-toxic”. The Activity [26] was “Non-toxic”.
